Source: ChEMBL document CHEMBL3763135, “Synthesis and evaluation of thiophene-based guanylhydrazones (iminoguanidines) efficient against panel of voriconazole-resistant fungal isolates” (Bioorg Med Chem, 2016)
The source made the active and inactive calls. No cut-off for these calls is given here.

Assays:
[1] = species: Danio rerio; assay: Toxicity against zebrafish embryo assessed as effect on heart beat at 10 ug/ml measured at 96 hrs post fertilization by inverted microscopic analysis; format: organism-based; details: in vivo
[2] = species: Danio rerio; assay: Toxicity against zebrafish embryo assessed as teratogenic embryos at 5 ug/ml measured at 96 hrs post fertilization by inverted microscopic analysis; format: organism-based; details: in vivo
[3] = tested on: Danio rerio; assay: Toxicity against zebrafish embryo assessed as pericardial edema at 2.5 ug/ml measured at 96 hrs post fertilization by inverted microscopic analysis; format: organism-based; details: in vivo
[4] = species: Danio rerio; assay: Toxicity against zebrafish embryo assessed as unhatched embryos at 2.5 ug/ml measured at 96 hrs post fertilization by inverted microscopic analysis; format: organism-based; details: in vivo
[5] = species: Danio rerio; assay: Toxicity against zebrafish embryo assessed as skeletal deformities at 5 ug/ml measured at 96 hrs post fertilization by inverted microscopic analysis; format: organism-based; details: in vivo
[6] = Toxicity against zebrafish embryo assessed as dead embryos at 25 ug/ml measured at 96 hrs post fertilization by inverted microscopic analysis; format: organism-based, Danio rerio; details: read-out: Activity
[7] = species: Danio rerio; assay: Toxicity against zebrafish embryo assessed as effect on notochord at 5 ug/ml measured at 96 hrs post fertilization by inverted microscopic analysis; format: organism-based; details: in vivo
[8] = tested on: Candida albicans; assay: Antifungal activity against Candida albicans CA5 assessed as fungal growth at sub-MIC measured over 12 hrs by time-kill dependence-based spectrophotometric analysis relative to DMSO control; format: functional
[9] = Selectivity index, ratio of IC50 for human MRC5 cell to MIC for Candida albicans CA5
[10] = species: Danio rerio; assay: Toxicity against zebrafish embryo assessed as growth retardation at 5 ug/ml measured at 96 hrs post fertilization by inverted microscopic analysis; format: organism-based; details: in vivo
[11] = Selectivity index, ratio of IC50 for human MRC5 cell to MIC for Candida albicans ATCC 10231
[12] = tested on: Candida albicans; assay: Induction of cell death in Candida albicans CA5 at MIC measured after 2 hrs by concavaline-FITC/PI/DAPI-staining based fluorescence microscopic analysis relative to DMSO control; format: functional
[13] = tested on: Aspergillus fumigatus; assay: Antifungal activity against Aspergillus fumigatus ATCC 13073 by broth dilution method; format: functional
[14] = species: Danio rerio; assay: Toxicity against zebrafish embryo assessed as teratogenic embryos at 2.5 ug/ml measured at 96 hrs post fertilization by inverted microscopic analysis; format: organism-based; details: in vivo
[15] = Hemolytic effect in sheep RBC assessed as release of hemoglobin at MIC after 1 hr; format: ADME, cell-based, Ovis aries, Erythrocyte; details: sheep red blood cells, read-out: Activity
[16] = species: Danio rerio; assay: Toxicity against zebrafish embryo assessed as unhatched embryos at 5 ug/ml measured at 96 hrs post fertilization by inverted microscopic analysis; format: organism-based; details: in vivo
[17] = tested on: Danio rerio; assay: Toxicity against zebrafish embryo assessed as yolk edema at 5 ug/ml measured at 96 hrs post fertilization by inverted microscopic analysis; format: organism-based; details: in vivo
[18] = tested on: Candida albicans; assay: Antibiofilm activity against Candida albicans ATCC 10231 assessed as inhibition of hyphae formation at MIC after 24 hrs by concanavalin A-FITC-staining based fluorescence microscopic analysis; format: functional, organism-based
[19] = tested on: Candida parapsilosis; assay: Antibiofilm activity against Candida parapsilosis C27 assessed as disruption of preformed biofilm after 24 hrs by concanavalin A-FITC-staining based fluorescence microscopic analysis; format: functional
[20] = tested on: Pichia kudriavzevii; assay: Antibiofilm activity against Candida krusei ATCC 34135 assessed as inhibition of hyphae formation at MIC after 24 hrs by concanavalin A-FITC-staining based fluorescence microscopic analysis; format: functional, organism-based
[21] = tested on: Candida parapsilosis; assay: Antibiofilm activity against Candida parapsilosis C27 assessed as inhibition of hyphae formation at MIC after 24 hrs by concanavalin A-FITC-staining based fluorescence microscopic analysis; format: functional, organism-based
[22] = tested on: Candida albicans; assay: Induction of apoptosis in Candida albicans CA5 assessed as nuclear condensation at MIC measured after 2 hrs by concavaline-FITC/PI/DAPI-staining based fluorescence microscopic analysis relative to DMSO control; format: functional, organism-based
[23] = tested on: Pichia kudriavzevii; assay: Antifungal activity against Candida krusei ATCC 34135 by broth dilution method; format: functional
[24] = tested on: Candida albicans; assay: Antibiofilm activity against Candida albicans ATCC 10231 assessed as disruption of preformed biofilm after 24 hrs by concanavalin A-FITC-staining based fluorescence microscopic analysis; format: functional
[25] = species: Danio rerio; assay: Toxicity against zebrafish embryo assessed as effect on tail tip at 5 ug/ml measured at 96 hrs post fertilization by inverted microscopic analysis; format: organism-based; details: in vivo
[26] = species: Danio rerio; assay: Toxicity against zebrafish embryo assessed as normal embryos at 2.5 ug/ml measured at 96 hrs post fertilization by inverted microscopic analysis; format: organism-based; details: in vivo
[27] = tested on: Danio rerio; assay: Toxicity against zebrafish embryo assessed as pericardial edema at 10 ug/ml measured at 96 hrs post fertilization by inverted microscopic analysis; format: organism-based; details: in vivo
[28] = tested on: Pichia kudriavzevii; assay: Antibiofilm activity against 48 hrs pre-formed Candida krusei ATCC 34135 assessed as inhibition of hyphae formation at MIC after 24 hrs by concanavalin A-FITC-staining based fluorescence microscopic analysis; format: functional, organism-based
[29] = tested on: Candida albicans; assay: Antibiofilm activity against Candida albicans assessed as inhibition of Spider medium-induced hyphae formation at sub-MIC after 24 hrs by propidium iodide and FITC-conjugated concanavaline A staining based fluorescence microscopy; format: functional, organism-based
[30] = Hemolytic effect in sheep RBC assessed as release of hemoglobin at cytotoxic IC50 after 1 hr; format: cell-based, Ovis aries, Erythrocyte; details: sheep red blood cells, read-out: Activity
[31] = species: Danio rerio; assay: Toxicity against zebrafish embryo assessed as normal embryos at 5 ug/ml measured at 96 hrs post fertilization by inverted microscopic analysis; format: organism-based; details: in vivo
[32] = species: Danio rerio; assay: Toxicity against zebrafish embryo assessed as growth retardation at 25 ug/ml measured at 96 hrs post fertilization by inverted microscopic analysis; format: organism-based; details: in vivo
[33] = species: Danio rerio; assay: Toxicity against zebrafish embryo assessed as effect on otoliths at 25 ug/ml measured at 96 hrs post fertilization by inverted microscopic analysis; format: organism-based; details: in vivo
[34] = species: Danio rerio; assay: Toxicity against zebrafish embryo assessed as effect on heart beat at 25 ug/ml measured at 96 hrs post fertilization by inverted microscopic analysis; format: organism-based; details: in vivo
[35] = species: Danio rerio; assay: Toxicity against zebrafish embryo assessed as unhatched embryos at 25 ug/ml measured at 96 hrs post fertilization by inverted microscopic analysis; format: organism-based; details: in vivo
[36] = species: Danio rerio; assay: Toxicity against zebrafish embryo assessed as effect on tail tip at 25 ug/ml measured at 96 hrs post fertilization by inverted microscopic analysis; format: organism-based; details: in vivo
[37] = species: Danio rerio; assay: Toxicity against zebrafish embryo assessed as effect on blood circulation at 25 ug/ml measured at 96 hrs post fertilization by inverted microscopic analysis; format: organism-based; details: in vivo
[38] = species: Danio rerio; assay: Toxicity against zebrafish embryo assessed as effect on notochord at 25 ug/ml measured at 96 hrs post fertilization by inverted microscopic analysis; format: organism-based; details: in vivo
[39] = tested on: Danio rerio; assay: Toxicity against zebrafish embryo assessed as yolk edema at 25 ug/ml measured at 96 hrs post fertilization by inverted microscopic analysis; format: organism-based; details: in vivo
[40] = species: Danio rerio; assay: Toxicity against zebrafish embryo assessed as effect on eyes at 25 ug/ml measured at 96 hrs post fertilization by inverted microscopic analysis; format: organism-based; details: in vivo
[41] = tested on: Danio rerio; assay: Toxicity against zebrafish embryo assessed as pericardial edema at 25 ug/ml measured at 96 hrs post fertilization by inverted microscopic analysis; format: organism-based; details: in vivo
[42] = species: Danio rerio; assay: Toxicity against zebrafish embryo assessed as head malformation at 25 ug/ml measured at 96 hrs post fertilization by inverted microscopic analysis; format: organism-based; details: in vivo
[43] = species: Danio rerio; assay: Toxicity against zebrafish embryo assessed as skeletal deformities at 25 ug/ml measured at 96 hrs post fertilization by inverted microscopic analysis; format: organism-based; details: in vivo
[44] = tested on: Danio rerio; assay: Toxicity against zebrafish embryo assessed as pericardial edema at 50 ug/ml measured at 96 hrs post fertilization by inverted microscopic analysis; format: organism-based; details: in vivo

With Cc1ccc(-c2ccc(/C=N/NC(=N)N)s2)cc1.Cl the Activity [1] was 0%, the Activity [2] was 80% and the Activity [3] was 7.41%. The Activity [4] was 0%, the Activity [5] was 0% and the mortality at 96 h, 25 ug/ml [6] was 100%. For the same compound, the Activity [7] was 0%, the Activity [8] was 50% and the “Selectivity Index” value [9] was 5. For the same compound, the Activity [10] was 0%, the “Selectivity Index” value [11] was 2.7 and the Activity [12] was “inactive”. For the same compound, the MIC [13] was 6.25 mg/L, the Activity [14] was 6.67% and the hemolysis at 1 h [15] was ≤ 10%. For the same compound, the Activity [16] was 0%, the Activity [17] was 0% and the Activity [18] was “Active”. The MBEC [19] was 125 µg/mL, the Activity [20] was “Active” and the Activity [21] was “Active”. For the same compound, the Activity [22] was “inactive”, the MIC [23] was 3.12 mg/L and the MBEC [24] was 125 µg/mL. The Activity [25] was 0%, the Activity [26] was 56.67% and the Activity [27] was 100%. For the same compound, the Activity [28] was “Active”, the Activity [29] was “Active” and the hemolysis at 1 h [30] was ≤ 10%. The Activity [31] was 0%.

Cl.Cl.N=C(N)N/N=C/c1ccc(-c2ccc(/C=N/NC(=N)N)s2)cc1 showed an Activity [1] of 0%, an Activity [32] of 0% and an Activity [33] of 0%. It also gave an Activity [34] of 0%, an Activity [35] of 0% and an Activity [2] of 0%. For the same compound, the Activity [3] was 0%, the Activity [36] was 0% and the Activity [4] was 0%. The Activity [5] was 0%, the Activity [37] was 0% and the mortality at 96 h, 25 ug/ml [6] was 3.33%. For the same compound, the Activity [38] was 0%, the Activity [7] was 0% and the “Selectivity Index” value [9] was 20. For the same compound, the Activity [10] was 0%, the MIC [13] was 25 mg/L and the Activity [14] was 0%. It also gave an Activity [39] of 0%, an Activity [16] of 0% and an Activity [17] of 0%. The Activity [18] was “Active”, the Activity [40] was 0% and the MBEC [19] was 500 µg/mL. For the same compound, the Activity [20] was “Active”, the Activity [21] was “Active” and the Activity [22] was “inactive”. It also gave an Activity [41] of 0%, an MIC [23] of 25 mg/L and an MBEC [24] of 250 µg/mL. It also gave an Activity [25] of 0%, an Activity [42] of 0% and an Activity [26] of 100%. For the same compound, the Activity [43] was 0%, the Activity [27] was 0% and the Activity [28] was “inactive”. For the same compound, the Activity [44] was 0%, the Activity [29] was “Active” and the Activity [31] was 100%.

In the case of Cl.N=C(N)N/N=C/c1ccc(-c2ccc(Br)cc2)s1, the Activity [1] is reported as 0%, the Activity [32] is reported as 0% and the Activity [33] is reported as 0%. It also gave an Activity [34] of 0%, an Activity [35] of 0% and an Activity [2] of 10%. For the same compound, the Activity [3] was 0%, the Activity [36] was 100% and the Activity [4] was 0%. The Activity [5] was 0%, the Activity [37] was 0% and the mortality at 96 h, 25 ug/ml [6] was 73.3%. The Activity [38] was 0%, the Activity [7] was 0% and the Activity [8] was 50%. For the same compound, the Activity [10] was 0%, the MIC [13] was 6.25 mg/L and the Activity [14] was 0%. For the same compound, the hemolysis at 1 h [15] was ≤ 10%, the Activity [39] was 0% and the Activity [16] was 0%. The Activity [17] was 0%, the Activity [40] was 0% and the MBEC [19] was 125 µg/mL. The Activity [41] was 100%, the MIC [23] was 1.56 mg/L and the MBEC [24] was 125 µg/mL. For the same compound, the Activity [25] was 0%, the Activity [42] was 0% and the Activity [26] was 100%. For the same compound, the Activity [43] was 0%, the Activity [27] was 33.33% and the Activity [29] was “Active”. The hemolysis at 1 h [30] was ≤ 10% and the Activity [31] was 80%.
